Experimental data published in patent US8536120B2 (The Administrators of The Tulane Educational Fund, priority 2006, dated 2013).

Molecular target: Ghrelin/GHRP/GHS Receptor (Rattus norvegicus, UniProt O08725)
Assay: In vitro cell culture method: GH release from cell culture of pituitary cells, peptide alone or plus stimulator
Assay type: cell-based
Design: from cell culture of pituitary cells; endogenous in cells; host or cells: dispersed primary rat anterior pituitary cells, 4 days in culture
Details: for GH release, first line of entry (mark P + S): stimulator 1 ng/ml
Description: The peptides were synthesized by the solid phase method and purified by HPLC. GH was determined by Radioimmunoassay (RIA).
In vitro GH Release-Female rats of the CD-1 strain were housed in a constant temperature room at 24° C. with 14 h light and 10 h darkness. The rats were fed Purina Rat chow and water at libitum. All studies were started between 0800-1000 hours. Pituitaries of mature female Sprague Dawley rats were rapidly removed after decapitation, neurointermediate lobe discarded and then placed in a pH 7.4 buffer. The pituitaries were cut into ˜3-mm pieces and then transferred to a flask containing HEPS buffer with trypsin and incubated at 37° C. Cells were triturated several times during this period. After dispersion, the cells were collected by centrifugation, wash with DMEM and placed into culture well. Cell cultures were maintained for 4 days at 37° with 8% CO2 added to the incubator atmosphere. After 4 days in culture, cells were washed with lactated Ringer's solution adjusted to pH 7.2-7.4 and then vehicle, peptide alone or peptide plus stimulator was added to media. Incubation time was 60-120 minutes after which media was removed from each well for GH determination. The GH RIA reagents were distributed by the NIH. Control data was collected from cell cultures treated with only the corresponding vehicle in the absence of peptide or stimulator. Control stimulated data was collected from cell cultures treated with stimulator alone in the absence of any peptide.

Ghrelin/GHRP/GHS Receptor, sequence (O08725 whole entry): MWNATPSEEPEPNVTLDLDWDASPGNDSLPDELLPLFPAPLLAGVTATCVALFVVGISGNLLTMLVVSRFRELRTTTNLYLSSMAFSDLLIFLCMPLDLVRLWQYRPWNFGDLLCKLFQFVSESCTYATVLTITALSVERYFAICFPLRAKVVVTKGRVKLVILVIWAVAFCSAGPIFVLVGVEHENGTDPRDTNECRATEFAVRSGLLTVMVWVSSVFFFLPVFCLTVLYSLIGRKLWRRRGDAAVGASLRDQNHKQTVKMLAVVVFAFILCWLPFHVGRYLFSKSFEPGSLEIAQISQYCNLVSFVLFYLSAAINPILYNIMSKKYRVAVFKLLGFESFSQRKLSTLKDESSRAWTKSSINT

SMILES	GH release, first line of entry (mark P + S) (Table 11, 10 μg/ml)	GH release, second line of entry (no mark) (Table 10, 10 μg/ml)	GH release, first line of entry (mark P + S) (Table 10, 10 μg/ml)	GH release, second line of entry (no mark) (Table 10, 30 μg/ml)	GH release, first line of entry (mark P + S) (Table 10, 30 μg/ml)	other results
COc1ccccc1C1CCN(C(=O)[C@@H](Cc2c[nH]c3ccccc23)NC(=O)C(C)(C)N)CC1 [(R)—N-(3-(1H-indol-3-yl)-1-(4-(2-methoxyphenyl)piperidin-1-yl)-1-oxopropan-2-yl)-2-amino-2-methylpropanamide]	365 ± 2 ng/mL					GH release, second line of entry (no mark) (Table 11, 10 μg/ml): 441 ± 21 ng/mL; GH release, second line of entry (no mark) (Table 11, 30 μg/ml): 384 ± 16 ng/mL; GH release, first line of entry (mark P + S) (Table 11, 30 μg/ml): 375 ± 30 ng/mL
NCC[C@H](N)C(=O)N[C@H](COCc1ccc2ccccc2c1)C(=O)N1CCC(c2ccccc2)CC1 [(S)-2,4-diamino-N—((R)-3-(naphthalen-2-ylmethoxy)-1-oxo-1-(4-phenylpiperidin-1-yl)propan-2-yl)butanamide]	794 ± 34 ng/mL					GH release, second line of entry (no mark) (Table 11, 10 μg/ml): 644 ± 33 ng/mL; GH release, second line of entry (no mark) (Table 11, 30 μg/ml): 529 ± 20 ng/mL; GH release, first line of entry (mark P + S) (Table 11, 30 μg/ml): 504 ± 20 ng/mL
CC(=O)N[C@@H](COCc1ccccc1)C(=O)N[C@@H](CCCCN)C(=O)N[C@H](Cc1c[nH]c2ccccc12)C(=O)N1CCC(c2ccccc2)CC1 [(S)—N—((R)-3-(1H-indol-3-yl)-1-oxo-1-(4-phenylpiperidin-1-yl)propan-2-yl)-2-((S)-2-acetamido-3-(benzyloxy)propanamido)-6-aminohexanamide]	245 ± 16 ng/mL					GH release, first line of entry (mark P + S) (Table 11, 1 μg/ml): 680 ± 13 ng/mL; GH release, first line of entry (mark P + S) (Table 11, 3 μg/ml): 489 ± 41 ng/mL
CC(=O)NCCCC[C@H](NC(=O)[C@@H](N)COCc1ccccc1)C(=O)N[C@@H](Cc1c[nH]c2ccccc12)C(=O)N1CCC(c2ccccc2)CC1 [(S)—N—((S)-3-(1H-indol-3-yl)-1-oxo-1-(4-phenylpiperidin-1-yl)propan-2-yl)-6-acetamido-2-((S)-2-amino-3-(benzyloxy)propanamido)hexanamide]		571 ± 32 ng/mL	388 ± 41 ng/mL	399 ± 24 ng/mL	273 ± 39 ng/mL	

More lines, main results first:

GH release, first line of entry (mark P + S) (Table 11, 10 μg/ml)	GH release, second line of entry (no mark) (Table 10, 10 μg/ml)	GH release, first line of entry (mark P + S) (Table 10, 10 μg/ml)	GH release, second line of entry (no mark) (Table 10, 30 μg/ml)	GH release, first line of entry (mark P + S) (Table 10, 30 μg/ml)	SMILES	other results
	719 ± 26 ng/mL	585 ± 10 ng/mL	435 ± 0 ng/mL	368 ± 2 ng/mL	N[C@H](COCc1ccccc1)C(=O)N1CCN(c2ccccc2)CC1 [D Ser(BZL)-N′-phenyl-N-piperazinamide, (R)-2-amino-3-(benzyloxy)-1-(4-phenylpiperazin-1-yl)propan-1-one]	
	344 ± 6 ng/mL	520 ± 61 ng/mL	486 ± 29 ng/mL	577 ± 24 ng/mL	N[C@H](Cc1c[nH]c2ccccc12)C(=O)N1CCC(c2ccccc2)CC1 [DTrp-4-phenylpiperdinamide, (R)-2-amino-3-(1H-indol-3-yl)-1-(4-phenylpiperidin-1-yl)propan-1-one]	GH release, second line of entry (no mark) (Table 10, 1 μg/ml): 1085 ± 1 ng/mL; GH release, first line of entry (mark P + S) (Table 10, 1 μg/ml): 815 ± 26 ng/mL; GH release, second line of entry (no mark) (Table 10, 3 μg/ml): 917 ± 4 ng/mL; GH release, first line of entry (mark P + S) (Table 10, 3 μg/ml): 390 ± 35 ng/mL
	353 ± 10 ng/mL	369 ± 30 ng/mL			NCCCC[C@@H](NC(=O)[C@@H](CO)NC(=O)c1ccccc1)C(=O)N[C@@H](Cc1c[nH]c2ccccc12)C(=O)N1CCC(c2ccccc2)CC1 [N—((R)-1-((R)-1-((S)-3-(1H-indol-3-yl)-1-oxo-1-(4-phenylpiperidin-1-yl)propan-2-ylamino)-6-amino-1-oxohexan-2-ylamino)-3-hydroxy-1-oxopropan-2-yl)benzamide]	GH release, second line of entry (no mark) (Table 10, 3 μg/ml): 432 ± 25 ng/mL; GH release, first line of entry (mark P + S) (Table 10, 3 μg/ml): 393 ± 54 ng/mL
